Our source for the Ki and IC50 values is ChEMBL document CHEMBL1128249, “2,4-Diamino-5-substituted-quinazolines as inhibitors of a human dihydrofolate reductase with a site-directed mutation at position 22 and of the dihydrofolate reductases from Pneumocystis carinii and Toxoplasma gondii” (J Med Chem, 1995).

In experiment [1] the target is Dihydrofolate reductase (Homo sapiens, UniProt P00374). Kind of experiment: Inhibitory activity against Leu22-Phe mutant human Dihydrofolate reductase.
Experiment [2] addresses T1, Dihydrofolate reductase (Pneumocystis carinii, UniProt P16184).
T1 sequence (P16184 whole entry): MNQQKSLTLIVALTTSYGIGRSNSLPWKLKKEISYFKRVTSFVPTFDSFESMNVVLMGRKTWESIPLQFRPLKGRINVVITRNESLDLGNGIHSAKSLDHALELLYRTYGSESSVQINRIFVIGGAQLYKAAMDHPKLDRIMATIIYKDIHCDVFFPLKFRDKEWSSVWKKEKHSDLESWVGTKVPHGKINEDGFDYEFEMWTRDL
Description: Inhibitory activity against Pneumocystis carinii Dihydrofolate reductase

For experiment [3], the target named is T2, Dihydrofolate reductase (Rattus norvegicus, UniProt Q920D2).
T2 sequence (Q920D2 whole entry): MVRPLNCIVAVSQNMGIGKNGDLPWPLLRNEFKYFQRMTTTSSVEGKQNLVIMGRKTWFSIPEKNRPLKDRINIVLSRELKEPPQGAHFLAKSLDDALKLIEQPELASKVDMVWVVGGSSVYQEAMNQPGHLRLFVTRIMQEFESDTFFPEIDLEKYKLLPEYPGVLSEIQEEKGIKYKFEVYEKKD
Description: Inhibitory activity against rat liver Dihydrofolate reductase

Experiment [4] has as its target T3, Bifunctional dihydrofolate reductase-thymidylate synthase (Toxoplasma gondii, UniProt Q07422).
T3 sequence (Q07422 whole entry): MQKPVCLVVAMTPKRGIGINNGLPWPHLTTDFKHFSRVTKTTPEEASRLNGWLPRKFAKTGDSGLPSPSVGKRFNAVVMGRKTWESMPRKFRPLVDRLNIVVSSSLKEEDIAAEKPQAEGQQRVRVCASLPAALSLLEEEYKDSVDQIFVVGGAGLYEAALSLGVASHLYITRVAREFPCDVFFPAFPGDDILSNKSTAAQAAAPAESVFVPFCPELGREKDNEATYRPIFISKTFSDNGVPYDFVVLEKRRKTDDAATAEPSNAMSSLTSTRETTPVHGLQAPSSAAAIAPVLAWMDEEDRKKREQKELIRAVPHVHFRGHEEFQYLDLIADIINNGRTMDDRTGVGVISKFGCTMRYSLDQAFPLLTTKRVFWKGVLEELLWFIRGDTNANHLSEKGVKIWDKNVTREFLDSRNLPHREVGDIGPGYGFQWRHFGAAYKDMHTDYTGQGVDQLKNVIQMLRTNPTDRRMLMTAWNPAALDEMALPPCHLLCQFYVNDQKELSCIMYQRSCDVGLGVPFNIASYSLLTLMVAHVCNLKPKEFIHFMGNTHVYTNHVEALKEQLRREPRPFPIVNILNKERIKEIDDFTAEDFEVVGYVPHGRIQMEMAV
Description: Inhibitory activity against Toxoplasma gondii Dihydrofolate reductase

Experiment [5] has as its target T4, Dihydrofolate reductase (Homo sapiens, UniProt P00374).
T4 sequence (P00374 whole entry): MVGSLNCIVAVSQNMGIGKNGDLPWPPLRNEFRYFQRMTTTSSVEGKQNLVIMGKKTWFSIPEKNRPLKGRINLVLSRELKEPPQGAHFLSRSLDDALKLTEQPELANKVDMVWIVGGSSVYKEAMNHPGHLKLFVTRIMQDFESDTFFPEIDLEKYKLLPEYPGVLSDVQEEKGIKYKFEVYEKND
Kind of experiment: Inhibitory compound against Wild-type human DHFR.

The target of experiment [6] is T4, Dihydrofolate reductase. In words: Inhibitory activity against Wild-type human DHFR.

In the case of `COc1ccc(OC)c(NCc2cccc3nc(N)nc(N)c23)c1`, in experiment [1], the Ki (in general, a measure of affinity in units of concentration, obtained from inhibition or displacement) is 33 nM. Moreover, the IC50 in experiment [2], in experiment [3] and in experiment [4] was greater than 5000 nM in each case.
On to `COc1cc(NCc2cccc3nc(N)nc(N)c23)cc(OC)c1OC`, for which the Ki in experiment [1] was 310 nM; in experiment [5] it was greater than 500 nM. In addition, the 50% inhibitory concentration (IC50) in experiment [2], in experiment [3] and in experiment [4] was greater than 20000 nM each time.
`Nc1nc(N)c2c(CCc3ccccc3)cccc2n1`: the values for the inhibition constant (Ki) in experiment [1] and in experiment [5] were 2.9 nM and 23 nM, respectively. Besides, the IC50 (as a rule, the concentration needed to halve the response being measured) was 3200 nM in experiment [2], 510 nM in experiment [3] and 370 nM in experiment [4].
For `Nc1nc(N)c2c(CNc3ccc(C(=O)NC(CCC(=O)O)C(=O)O)cc3)cccc2n1` (centres undefined), the results for the Ki in experiment [1] and in experiment [6] were 2.7 nM and 0.54 nM, respectively.
In the case of `COc1ccc(OC)c(CCc2cccc3nc(N)nc(N)c23)c1`, the results for the inhibitory constant (Ki) in experiment [1] and in experiment [5] were 4.2 nM and 41 nM, respectively. Moreover, the 50% inhibitory concentration (IC50) came out at 19000 nM in experiment [2], 4100 nM in experiment [3] and 5900 nM in experiment [4].
Regarding `COc1cc(CCc2cccc3nc(N)nc(N)c23)cc(OC)c1OC`, the Ki in experiment [1] was determined as 4.3 nM; in experiment [5] it was 72 nM. The half-maximal inhibitory concentration (IC50) was 14000 nM in experiment [2], 3700 nM in experiment [3] and 930 nM in experiment [4].
On to `Nc1nc(N)c2cc(CNc3ccc(C(=O)NC(CCC(=O)O)C(=O)O)cc3)ccc2n1` (centres undefined), for which the Ki in experiment [1] worked out at 0.01 nM; in experiment [6], 0.00089 nM.
Regarding `COc1ccc(OC)c(C#Cc2cccc3nc(N)nc(N)c23)c1`, the values for the Ki in experiment [1] and in experiment [5] were 140 nM and greater than 500 nM, respectively. Moreover, the half-maximal inhibitory concentration (IC50) in experiment [2], in experiment [3] and in experiment [4] was greater than 18000 nM each time.
Turning to `Nc1nc(N)c2c(C#Cc3ccccc3)cccc2n1`, the Ki in experiment [1] was 96.3 nM; in experiment [6], greater than 500 nM. The half-maximal inhibitory concentration (IC50) in experiment [2], in experiment [3] and in experiment [4] was greater than 30000 nM each time.
As to `Nc1nc(N)c2c(/C=C/c3ccccc3)cccc2n1`, the Ki in experiment [1] was determined as 1.8 nM. Besides, the half-maximal inhibitory concentration (IC50) in experiment [2] worked out at 10000 nM; in experiment [3], 1500 nM; in experiment [4], 1200 nM.
In the case of `COc1ccc(OC)c(N(C)Cc2cccc3nc(N)nc(N)c23)c1`, the inhibition constant (Ki) is 250 nM in experiment [1] and greater than 500 nM in experiment [5]. Also, the results for the IC50 in experiment [2], in experiment [3] and in experiment [4] were greater than 40000 nM, 84000 nM and greater than 40000 nM, respectively.
Regarding `COc1ccc(OC)c(Cc2cnc3nc(N)nc(N)c3c2C)c1` [PIRITREXIM], the results for the inhibition constant (Ki) in experiment [1] and in experiment [6] were 38 nM and 33 nM, respectively.
Turning to `COc1cc(N(C)Cc2cccc3nc(N)nc(N)c23)cc(OC)c1OC`, the results for the Ki in experiment [1] and in experiment [5] were 49 nM and greater than 500 nM, respectively. For the same compound, the IC50 in experiment [2] was greater than 20000 nM; in experiment [3] it was 53000 nM; in experiment [4], greater than 20000 nM.
